Consider one compound from publication PMC9768205, “Pharmacological targeting of the mitochondrial calcium-dependent potassium channel KCa3.1 triggers cell death and reduces tumor growth and metastasis in vivo” (Cell Death & Disease, 2022).

For the test, the target named is T1, KCa3.1 (Homo sapiens, UniProt O15554).
T1 construct: gene KCNN4
The test can be described thus: whole-cell perforated patch clamp, block of DC-EBIO/ionomycin-activated current. The class given is cell-based.

T1 sequence (O15554 whole entry): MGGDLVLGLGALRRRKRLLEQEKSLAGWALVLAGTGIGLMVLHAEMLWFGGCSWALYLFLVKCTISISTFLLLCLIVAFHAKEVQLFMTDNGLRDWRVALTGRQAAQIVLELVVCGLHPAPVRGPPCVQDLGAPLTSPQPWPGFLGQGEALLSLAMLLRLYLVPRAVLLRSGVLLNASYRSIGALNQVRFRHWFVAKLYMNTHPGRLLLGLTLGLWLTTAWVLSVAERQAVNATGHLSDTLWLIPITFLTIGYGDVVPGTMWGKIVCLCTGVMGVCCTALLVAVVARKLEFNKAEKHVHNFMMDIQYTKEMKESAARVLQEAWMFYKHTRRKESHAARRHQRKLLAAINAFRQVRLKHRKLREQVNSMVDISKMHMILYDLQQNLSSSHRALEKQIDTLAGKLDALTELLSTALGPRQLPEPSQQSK

`Clc1ccccc1C(c1ccccc1)(c1ccc(CCC[P+](c2ccccc2)(c2ccccc2)c2ccccc2)cc1)n1cccn1` (stereo not shown) [mitoTRAM-34, (3-(4-((2-chlorophenyl)(phenyl)(1H-pyrazol-1yl)methyl)phenyl)propyl)triphenylphosphonium iodide] showed an IC50 of around 2000 nM.
